Test system: vasodilatation of the facial skin, induced by electrical ganglion stimulation
Assay: Facial skin blood flow: vasodilatation of the facial skin induced by electrical trigeminal ganglion stimulation
Assay type: in vivo, rat
Settings: anaesthetised male Wistar rats, i.v. 5 minutes before the second stimulation, BIBN 4096 Cl 0.03 mg/kg, sumatriptan 1.0 mg/kg, combination (0.03 mg + 1.0 mg)/kg; for % of trigeminus stimulation: first stimulation as control, saline control 82.7 ± 4.4
Method: Measurement of the Facial Skin Blood Flow
The facial skin blood flow was measured by a modified method as described by Escott et al. (Escott, K. J., Beattie, D. T., Connor, H. E., Brain, S. D. (1995), Trigeminal ganglion stimulation increases facial skin blood flow in the rat: a major role for calcitonin gene-related peptide, Brain Research, 669(1), 93-99). Fasting male Wistar rats (strain CHbb:THOM, 280-320 g) were anaesthetised with sodium pentobarbitone (initially with 60 mg/kg i.p. and maintained throughout the experiment with an intraperitoneal infusion of 30 mg/kg/h through a 23 G needle using a solution of 10 mg/ml). Both sides of the buccal region of the facial skin were shaved and depilated with a commercially available depilatory cream (Pilca, Schwarzkopf & Henkel, 40551 Düsseldorf, Germany). The trachea was fitted with a cannula, and the animals were artificially ventilated (80 breaths per minute) with ambient air enriched with oxygen. The body temperature was maintained at 37° C. using an automatic heating pad. The left femoral artery and left femoral vein were fitted with cannulas for continuous measurement of the arterial blood pressure or the intravenous administration of test compounds. A neuromuscular blockade was obtained by intravenous administration of pancuronium bromide (1 mg/kg/0.5 ml, 5 minutes before each electrical stimulation). The heart rate was derived from the blood pressure signal. The blood pressure and heart rate were recorded continuously during the course of the experiment in order to assess the level of anaesthesia and monitor the cardiovascular activities of the pharmaceutical compositions used in this study.
The animals were placed in a stereotactic frame, and a longitudinal cut was made in the scalp. A small hole was drilled in the skull (on the left or right) and a bipolar electrode (Rhodes SNEX-100, obtained from David Kopf Instruments, Tujunga, 91042 Calif., USA) was lowered by means of a micromanipulator into the trigeminal ganglion (0.32 cm dorsally of the bregma, ±0.30 cm laterally of the centre line and 0.95 cm below the dural surface). The position of the electrodes in the trigeminal ganglia was checked visually at the end of each experiment after the removal of the brain. […] Microvascular changes in blood flow in the facial skin were measured by laser Doppler flow measurement using a Periflux Laser-Doppler system (PeriFLUX 4001, wavelength: 780 nm; time constant: 3 s; Perimed AB, Järfälla, S-17526, Sweden). […] Changes in blood flow were measured as flow in any desired units and expressed as the area under the flow curve (mm^2) according to Escott et al. (1995). […]

[1] = Rattus norvegicus, iv, versus saline solution control, read-out: % inhibition compared with the control value

SMILES	inhibition at 0.03 mg/kg [1]	% of trigeminus stimulation	inhibition at 1 mg/kg [1]
NCCCC[C@H](NC(=O)[C@@H](Cc1cc(Br)c(O)c(Br)c1)NC(=O)N1CCC(N2Cc3ccccc3NC2=O)CC1)C(=O)N1CCN(c2ccncc2)CC1 [BIBN 4096 Cl, 1-[N^2-[3,5-dibromo-N-[[4-(3,4-dihydro-2(1H)-oxoquinazolin-3-yl)-1-piperidinyl]-carbonyl]-D-tyrosyl]-L-lysyl]-4-(4-pyridinyl)-piperazine]	27.1%	60.3 ± 5.1%	
CNS(=O)(=O)Cc1ccc2[nH]cc(CCN(C)C)c2c1 [sumatriptan]		68.8 ± 6.8%	16.8%
